# Reference: patent publication US11357748B2, “Methods for treating mendelian disorders of the epigenetic machinery” (THE JOHNS HOPKINS UNIVERSITY, priority 2014, dated 2022)
# Entries after “also recorded” stand apart in the source; their conditions may differ. Like-named read-outs stand apart in the source and are kept apart here.
# Experiments:
# [1] = tested on: H3K4 trimethylation activity in Kmt2d+/βGeo MEFs; experiment: H3K4me3 indicator in murine embryonic fibroblasts (MEFs) from Kmt2d+/βGeo and Kmt2d+/+ mice; type: cell-based, mouse; settings: Kmt2d+/βGeo MEFs; FIG. 18H, 22A, 23
# Text: An H3K4 trimethylation reporter was also created (FIG. 5B). This reporter is based on the H3 tail on one end and the TBP associated factor III (TAFIII) […] on the other end; the TAFIII […] only identifies and binds to trimethylated K4 on H3. When the H3K4 site gets trimethylated, the TAFIII […] can bind to the modified H3 tail and bring the two parts of the separated GFP in close proximity. The activity of the epigenetic modification system can be quantified through fluorescence.
# Epigenetic reporter alleles were synthesized (OriGene, Rockville, Md.) using published sequences for component elements (Baird et al. (1999) Proc. Natl. Acad. Sci. 96:11241-6; Souslova et al. (2007) BMC Biotechnol. 7:37). Single nucleotide mutations were created using the QuickChange Lightening kit (Agilent Technologies Inc, Santa Clara, Calif.). For H4ac indicator, K5R, K8R, K12R, K16R and K20R (MUT indicator) were introduced. For H3K4me3 indicator, K4Q and D890A/W891A and M882A (three separate constructs) were introduced. […] FACS data were analyzed using FlowJo (Tree Star Inc, Ashland, Oreg.). […]
# Epigenetic reporter systems were created that monitor either H4 acetylation or H3K4 trimethylation machinery activity in an effort to determine whether there is an ongoing activity deficiency in cells from Kmt2d^+/βGeo mice (FIG. 18A). Both reporter alleles encode halves of green fluorescent protein separated by a flexible linker region (Baird et al. (1999) Proc. Natl. Acad. Sci. 96: 11241-6) with a histone tail and a histone reader at the N- and C-termini, respectively. When the histone tail corresponding to either H4 or H3 is modified by acetylation or methylation, respectively, GFP structure and function are reconstituted, as detected by a fluorescent readout (FIG. 18B). The acetyl reporter protein quantifies the activity of the acetylation machinery (acetylation of H4 specifically at sites K5, K8, K12, and K16) and comprises an H4 tail (residues 1-30) on one end and a TATA binding protein (TBP)-associated factor II (TAFII) bromodomain on the other end (FIG. 18A). […]
# [2] = tested on: H4 acetylation machinery (H4ac indicator); experiment: H4 acetylation (H4ac) indicator reporter allele, GFP fluorescence by FACS in stably transfected T293/HEK293 cells; type: cell-based; settings: FIG. 18C, 18D, 19A, 19B, 20
# Text: The acetyl reporter protein quantifies the activity of the acetylation machinery (acetylation of H4 specifically at the 5th, 8th, 12th and 16th Lysine's) and comprises an H4 tail on one end (the target for acetylation) and a TBP associated factor II (TAFII) bromodomain on the other end of the reporter protein (FIG. 5A). The TAFII bromodomain only recognizes and binds to the acetylated H4 tail, resulting in reconstitution of GFP structure and function (i.e. fluorescence). Therefore, the reporter protein has no fluorescence unless it is acetylated by the acetylation system of the nucleus of the cell.
# Epigenetic reporter alleles were synthesized (OriGene, Rockville, Md.) using published sequences for component elements (Baird et al. (1999) Proc. Natl. Acad. Sci. 96:11241-6; Souslova et al. (2007) BMC Biotechnol. 7:37). […] FACS data were analyzed using FlowJo (Tree Star Inc, Ashland, Oreg.). […]
# Epigenetic reporter systems were created that monitor either H4 acetylation or H3K4 trimethylation machinery activity in an effort to determine whether there is an ongoing activity deficiency in cells from Kmt2d^+/βGeo mice (FIG. 18A). Both reporter alleles encode halves of green fluorescent protein separated by a flexible linker region (Baird et al. (1999) Proc. Natl. Acad. Sci. 96: 11241-6) with a histone tail and a histone reader at the N- and C-termini, respectively. […]
# [3] = tested on: mouse models of Rubinstein-Taybi syndrome; settings: cited from earlier work
# HDAC = settings: Phiel et al. (2001); cited from earlier work
structure (smiles),measurement,setting,value
"Nc1ccccc1NC(=O)c1ccc(CNC(=O)OCc2cccnc2)cc1 [MS275, Pyridin-3-ylmethyl N-[[4-[(2-aminophenyl)carbamoyl]phenyl]methyl]carbamate]",H3K4 trimethylation activity in Kmt2d+/βGeo cells upon treatment,[1],enhanced; also recorded: improved
"O=C(CCCCCCC(=O)Nc1ccccc1)NO [SAHA, N′-hydroxy-N-phenyl-octanediamide]",H4ac indicator fluorescence response to increasing amounts of drug,[2],linear fluorescence response; also recorded: increasing fluorescence; also recorded: increases acetylation of the indicator; also recorded: increased signal
same,neurological phenotypes in Rubinstein-Taybi mouse models,[3]; intracerebroventricular administration,respond
"CC(C=CC(=O)NO)=CC(C)C(=O)c1ccc(N(C)C)cc1 (centres unmarked) [trichostatin A, 7-[4-(dimethylamino)phenyl]-N-hydroxy-4,6-dimethyl-7-oxohepta-2,4-dienamide]",neurological phenotypes in Rubinstein-Taybi mouse models,[3]; intraperitoneal administration,respond
"CCCC(CCC)C(=O)O [valproic acid, 2-Propylpentanoic acid]",HDAC inhibitor activity,HDAC,potent HDACi
